How the values were obtained:
[1] = target: Adenosine A2B (ADORA2B) receptor (Homo sapiens (Human), UniProt P29275); assay: ADORA2B Receptor Binding Assay; settings: radioligand binding, membrane stock
Description: ADORA2B Receptor Binding Assay
100 μL of Adenosine A2B membrane stock was dispensed into individual wells of an assay plate. 1 μL of each compound (test compounds, high control compound, low control compound) was then transferred into individual wells, followed by 100 μL of radio-labeled ligand. Plates were then sealed, and incubated at room temperature for 1 hour. Unifilter-96 GF/C filter plates were pre-soaked with 50 μL of 0.5% BSA per well for at least 30 min at room temperature. When binding assays were completed, reaction mixtures were filtered through GF/C plates using a Perkin Elmer Filtermate Harvester, and then each plate was washed 4× with cold wash buffer. Filter plates were then dried for 1 hour at 50° C. After drying, the bottom of the filter plate wells was sealed using Perkin Elmer Unifilter-96 backing seal tape. 50 μL of Perkin Elmer Microscint 20 cocktail was then added, and the top of the filter plate was then sealed using Perkin Elmer TopSeal-A sealing film. ^3H trapped on the filter was counted using a Perkin Elmer MicroBeta2 Reader. Data analysis was performed using GraphPad Prism 5 software, and the “Inhibition[% Control]” was calculated using the following equation: % Inh=(1−Background subtracted Assay value/Background subtracted HC value)*100.

[2] = target: Adenosine A2a (ADORA2A) receptor (Homo sapiens (Human), UniProt P29274); assay: ADORA2A Receptor Binding Assay; settings: radioligand binding, membrane stock
Sequence of Adenosine A2a (ADORA2A) receptor (P29274 whole entry): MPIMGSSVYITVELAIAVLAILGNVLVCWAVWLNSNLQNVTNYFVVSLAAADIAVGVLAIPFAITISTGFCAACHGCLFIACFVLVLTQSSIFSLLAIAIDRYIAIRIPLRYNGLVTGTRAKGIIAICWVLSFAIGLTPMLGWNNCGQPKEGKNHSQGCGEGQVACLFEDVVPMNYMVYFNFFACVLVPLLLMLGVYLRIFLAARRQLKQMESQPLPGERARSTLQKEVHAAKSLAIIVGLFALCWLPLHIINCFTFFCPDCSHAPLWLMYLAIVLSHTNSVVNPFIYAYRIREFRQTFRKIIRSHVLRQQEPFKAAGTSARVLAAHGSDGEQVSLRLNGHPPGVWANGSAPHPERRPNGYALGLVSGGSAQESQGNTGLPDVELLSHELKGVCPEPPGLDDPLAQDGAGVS
Description: ADORA1A and ADORA2A Receptor Binding Assay
2 μL of each compound (test compounds, high control compound, low control compound) was transferred into individual wells of an assay plate. Also to each individual well, 98 μL of Adenosine A1a membrane stock (for ADORA1A Receptor Binding Assay) or Adenosine A2a membrane stock (for ADORA2A Receptor Binding Assay) was dispensed, followed by 100 μL of radio-labeled ligand. Plates were then sealed, and incubated at room temperature for 1 hour (for ADORA1A Receptor Binding Assay) or 2 hours (for ADORA2A Receptor Binding Assay). Unifilter-96 GF/C filter plates were pre-soaked with 50 μL of 0.3% PEI per well for at least 30 min at room temperature. When binding assays were completed, reaction mixtures were filtered through GF/C plates using a Perkin Elmer Filtermate Harvester, and then each plate was washed 4× with cold wash buffer. Filter plates were then dried for 1 hour at 50° C. After drying, the bottom of the filter plate wells was sealed using Perkin Elmer Unifilter-96 backing seal tape. 50 μL of Perkin Elmer Microscint 20 cocktail was then added, and the top of the filter plate was then sealed using Perkin Elmer TopSeal-A sealing film. ^3H trapped on the filter was counted using a Perkin Elmer MicroBeta2 Reader. Data analysis was performed using GraphPad Prism 5 software, and the “Inhibition [% Control]” was calculated using the following equation: % Inh=(1−Background subtracted Assay value/Background subtracted HC value)*100.

Sequence of Adenosine A2B (ADORA2B) receptor (P29275 whole entry): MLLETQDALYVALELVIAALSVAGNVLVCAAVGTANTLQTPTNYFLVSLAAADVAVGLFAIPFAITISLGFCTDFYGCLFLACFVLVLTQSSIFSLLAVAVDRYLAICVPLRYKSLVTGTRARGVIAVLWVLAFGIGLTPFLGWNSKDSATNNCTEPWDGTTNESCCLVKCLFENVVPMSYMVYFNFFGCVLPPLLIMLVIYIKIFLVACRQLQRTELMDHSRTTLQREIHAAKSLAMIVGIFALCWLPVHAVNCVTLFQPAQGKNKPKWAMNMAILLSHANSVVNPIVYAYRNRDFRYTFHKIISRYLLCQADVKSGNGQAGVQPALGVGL

SMILES | IC50 [1] | IC50 [2]
Cc1nc2cc(NC(=O)C3CC3)nc(-c3ccc(S(=O)(=O)O)cc3)n2n1 [Compound 125, 4-[7-(cyclopropanecarbonylamino)-2-methyl-[1,2,4]triazolo[1,5-c]pyrimidin-5-yl]benzenesulfonic acid] | > 1000 nM | > 1000 nM
Cc1nc2cc(NC(=O)C3CC3)nc(-c3cnn(C)c3)n2n1 [Compound 70, N-[2-methyl-5-(1-methylpyrazol-4-yl)-[1,2,4]triazolo[1,5-c]pyrimidin-7-yl]cyclopropanecarboxamide] | > 1000 nM | 100 to 1000 nM
CC(=O)Nc1cc2nc(C(C)C)nn2c(-c2ccc(C)o2)n1 [Compound 34, N-[5-(5-methylfuran-2-yl)-2-propan-2-yl-[1,2,4]triazolo[1,5-c]pyrimidin-7-yl]acetamide] | < 10 nM | < 10 nM
Cc1nc2cc(NC(=O)C3CC3)nc(-c3ccoc3)n2n1 [Compound 73, N-[5-(furan-3-yl)-2-methyl-[1,2,4]triazolo[1,5-c]pyrimidin-7-yl]cyclopropanecarboxamide] | 100 to 1000 nM | 10 to 100 nM
Cc1nc2c(F)c(NC(=O)C3CC3)nc(-c3ccc(C)o3)n2n1 [Compound 39, N-[8-fluoro-2-methyl-5-(5-methylfuran-2-yl)-[1,2,4]triazolo[1,5-c]pyrimidin-7-yl]cyclopropanecarboxamide] | 10 to 100 nM | < 10 nM
Cc1nc2cc(NC(=O)C3CC3)nc(-c3cccc(C#N)c3)n2n1 [Compound 53, N-[5-(3-cyanophenyl)-2-methyl-[1,2,4]triazolo[1,5-c]pyrimidin-7-yl]cyclopropanecarboxamide] | 100 to 1000 nM | 10 to 100 nM
Cc1ccc(-c2nc(N)cn3c(C)cnc23)o1 [Compound 198, 3-methyl-8-(5-methylfuran-2-yl)imidazo[1,2-a]pyrazin-6-amine] | > 1000 nM | > 1000 nM
CC(=O)Nc1cc2nc(C)nn2c(-c2ccc(S(C)(=O)=O)cc2)n1 [Compound 101, N-[2-methyl-5-(4-methylsulfonylphenyl)-[1,2,4]triazolo[1,5-c]pyrimidin-7-yl]acetamide] | > 1000 nM | > 1000 nM
Nc1nc(-c2ccccc2)n2nc(CF)nc2c1Cl [Compound 138, 8-chloro-2-(fluoromethyl)-5-phenyl-[1,2,4]triazolo[1,5-c]pyrimidin-7-amine] | 10 to 100 nM | < 10 nM
Cc1nc2c(Cl)c(N)nc(-c3ccc(Cl)cc3)n2n1 [Compound 77, 8-chloro-5-(4-chlorophenyl)-2-methyl-[1,2,4]triazolo[1,5-c]pyrimidin-7-amine] | 10 to 100 nM | 10 to 100 nM
CC(=O)c1cccc(-c2nc(NC(=O)OC(C)(C)C)cc3nc(C)nn23)c1 [Compound 94, tert-butyl N-[5-(3-acetylphenyl)-2-methyl-[1,2,4]triazolo[1,5-c]pyrimidin-7-yl]carbamate] | > 1000 nM | > 1000 nM
Cc1ccc(-c2nc(NC(=O)C3CC3)cc3nc(C4CCOC4)nn23)o1 (stereo not shown) [Compound 50, N-[5-(5-methylfuran-2-yl)-2-(oxolan-3-yl)-[1,2,4]triazolo[1,5-c]pyrimidin-7-yl]cyclopropanecarboxamide] | 10 to 100 nM | < 10 nM
Cc1nc2cc(NC(=O)C3CC3)nc(-c3ccc(C4CC4)o3)n2n1 [Compound 38, N-[5-(5-cyclopropylfuran-2-yl)-2-methyl-[1,2,4]triazolo[1,5-c]pyrimidin-7-yl]cyclopropanecarboxamide] | 10 to 100 nM | < 10 nM
Cc1nc2cc(NC(N)=O)nc(-c3ccco3)n2n1 [Compound 152, [5-(furan-2-yl)-2-methyl-[1,2,4]triazolo[1,5-c]pyrimidin-7-yl]urea] | 10 to 100 nM | 10 to 100 nM
Cc1ccc(-c2nc(NC(=O)C3CC3)cn3ccnc23)o1 [Compound 192, N-[8-(5-methylfuran-2-yl)imidazo[1,2-a]pyrazin-6-yl]cyclopropanecarboxamide] | 10 to 100 nM | 10 to 100 nM
Cc1nc2cc(NC(=O)N3CCCC3)nc(-c3ccco3)n2n1 [Compound 103, N-[5-(furan-2-yl)-2-methyl-[1,2,4]triazolo[1,5-c]pyrimidin-7-yl]pyrrolidine-1-carboxamide] | 100 to 1000 nM | 10 to 100 nM

SMILES | IC50 [1] | IC50 [2]
CC(=O)Nc1cc2nc(C)nn2c(-c2cccc(F)c2)n1 [Compound 132, N-[5-(3-fluorophenyl)-2-methyl-[1,2,4]triazolo[1,5-c]pyrimidin-7-yl]acetamide] | 100 to 1000 nM | 10 to 100 nM
Cc1nc2c(Cl)c(N)nc(-c3ccc(F)c(F)c3)n2n1 [Compound 141, 8-chloro-5-(3,4-difluorophenyl)-2-methyl-[1,2,4]triazolo[1,5-c]pyrimidin-7-amine] | 100 to 1000 nM | 10 to 100 nM
Cc1ccc(-c2nc(N)c(Cl)n3nc(C)nc23)cc1 [Compound 184, 5-chloro-2-methyl-8-(4-methylphenyl)-[1,2,4]triazolo[1,5-a]pyrazin-6-amine] | < 10 nM | < 10 nM
CC(=O)Nc1cn2cc(C)nc2c(-c2ccco2)n1 [Compound 211, N-[8-(furan-2-yl)-2-methylimidazo[1,2-a]pyrazin-6-yl]acetamide] | 10 to 100 nM | 10 to 100 nM
Cc1cn2cc(NC(=O)C(F)F)nc(-c3ccco3)c2n1 [Compound 221, 2,2-difluoro-N-[8-(furan-2-yl)-2-methylimidazo[1,2-a]pyrazin-6-yl]acetamide] | 10 to 100 nM | < 10 nM
Cc1nc2c3c(nc(-c4ccc(C)o4)n2n1)NC(=O)C3 [Compound 97, 4-methyl-7-(5-methylfuran-2-yl)-3,5,6,8,10-pentazatricyclo[7.3.0.0^2,6]dodeca-1(9),2,4,7-tetraen-11-one] | 10 to 100 nM | < 10 nM
Cc1nc2cc(NC(=O)N3CC[C@@H](O)C3)nc(-c3ccco3)n2n1 [Compound 104, (3R)-N-[5-(furan-2-yl)-2-methyl-[1,2,4]triazolo[1,5-c]pyrimidin-7-yl]-3-hydroxypyrrolidine-1-carboxamide] | > 1000 nM | 100 to 1000 nM
Cc1nc2cc(NC(=O)C3CC3)nc(-c3ccc(C(C)(C)C)o3)n2n1 [Compound 43, N-[5-(5-tert-butylfuran-2-yl)-2-methyl-[1,2,4]triazolo[1,5-c]pyrimidin-7-yl]cyclopropanecarboxamide] | > 1000 nM | 10 to 100 nM
Cc1ccc(-c2nc(NC(=O)C3CC3)cn3cc(C(F)(F)F)nc23)o1 [Compound 197, N-[8-(5-methylfuran-2-yl)-2-(trifluoromethyl)imidazo[1,2-a]pyrazin-6-yl]cyclopropanecarboxamide] | < 10 nM | < 10 nM
CC(=O)Nc1cc2nc(C)nn2c(-c2ccc(Br)o2)n1 [Compound 90, N-[5-(5-bromofuran-2-yl)-2-methyl-[1,2,4]triazolo[1,5-c]pyrimidin-7-yl]acetamide] | < 10 nM | < 10 nM
CCC(=O)Nc1cn2cc(C)nc2c(-c2ccco2)n1 [Compound 220, N-[8-(furan-2-yl)-2-methylimidazo[1,2-a]pyrazin-6-yl]propanamide] | 10 to 100 nM | < 10 nM
Cc1nc2cc(NC(=O)C(C)(C)C)nc(-c3ccc(C)o3)n2n1 [Compound 6, 2,2-dimethyl-N-[2-methyl-5-(5-methylfuran-2-yl)-[1,2,4]triazolo[1,5-c]pyrimidin-7-yl]propanamide] | > 1000 nM | < 10 nM
Cc1nc2c(Cl)c(N)nc(-c3ccc(F)cc3)n2n1 [Compound 80, 8-chloro-5-(4-fluorophenyl)-2-methyl-[1,2,4]triazolo[1,5-c]pyrimidin-7-amine] | 100 to 1000 nM | 10 to 100 nM
Cc1ccc(-c2nc(NC(=O)C3CC3)cc3nc(C4CC4)nn23)o1 [Compound 62, N-[2-cyclopropyl-5-(5-methylfuran-2-yl)-[1,2,4]triazolo[1,5-c]pyrimidin-7-yl]cyclopropanecarboxamide] | 10 to 100 nM | < 10 nM
Cc1nc2c(Br)c(N)nc(-c3ccc(F)cc3)n2n1 [Compound 83, 8-bromo-5-(4-fluorophenyl)-2-methyl-[1,2,4]triazolo[1,5-c]pyrimidin-7-amine] | 100 to 1000 nM | 10 to 100 nM
Cc1ccc(-c2nc(NC(=O)C3CC3)cn3cc(CO)nc23)o1 [Compound 209, N-[2-(hydroxymethyl)-8-(5-methylfuran-2-yl)imidazo[1,2-a]pyrazin-6-yl]cyclopropanecarboxamide] | 10 to 100 nM | < 10 nM
